Laboratory results taken from patent US9598440B2, “Inhibitors of IRAK4 activity” (MERCK SHARP & DOHME CORP., priority 2012, dated 2017).

Target: IRAK4 (Homo sapiens (Human), UniProt Q9NWZ3)
Test: Determination of IRAK4 kinase activity (IMAP fluorescence polarization, phosphorylation of fluorescent peptide substrate)
Assay type: biochemical
Details: 0.5 nM GST tagged IRAK4, 100 nM peptide substrate RP7030, 100 μM ATP, 30 minutes at 25° C.
In short: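 GST-tagged IRAK4 (0.5 nM) phosphorylated 100 nM fluorescent peptide substrate with 100 µM ATP in Tris-HCl pH 7.2, 1 mM MgCl2, 1 mM DTT, 0.01% Tween 20 for 30 min at 25 °C. Phosphorylation read by IMAP nanoparticle binding as fluorescence polarization increase.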

IRAK4, sequence (Q9NWZ3 whole entry): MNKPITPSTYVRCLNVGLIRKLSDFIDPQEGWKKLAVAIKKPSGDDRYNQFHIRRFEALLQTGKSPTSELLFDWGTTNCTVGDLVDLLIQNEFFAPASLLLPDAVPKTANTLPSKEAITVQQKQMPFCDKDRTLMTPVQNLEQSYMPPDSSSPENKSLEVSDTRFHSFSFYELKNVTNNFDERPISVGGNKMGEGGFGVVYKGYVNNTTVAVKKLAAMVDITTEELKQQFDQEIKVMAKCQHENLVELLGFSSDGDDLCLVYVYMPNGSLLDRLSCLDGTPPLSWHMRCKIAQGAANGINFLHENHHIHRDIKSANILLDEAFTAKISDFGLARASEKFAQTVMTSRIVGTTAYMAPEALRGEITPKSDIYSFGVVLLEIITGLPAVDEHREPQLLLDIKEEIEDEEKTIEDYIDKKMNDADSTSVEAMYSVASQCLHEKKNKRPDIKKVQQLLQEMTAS

IC50 [nM] | Structure (SMILES)
43 | OC[C@H]1C[C@@H](Nc2nc(Nc3ccnc(OC4CC4)c3)ncc2-c2ccc3ccccc3n2)[C@H](O)[C@@H]1O [Example 63, 2-((2-cyclopropoxypyridin-4-yl)amino)-6-(((1R,2S,3R,4R)-2,3-dihydroxy-4-(hydroxymethyl)cyclopentyl)amino)-5-(quinolin-2-yl)pyrimidine]
241 | Nc1ncc(-c2nccs2)c(N[C@@H]2C[C@H](CO)[C@@H](O)[C@H]2O)n1 [Example 64, 2-amino-6-(((1R,2S,3R,4R)-2,3-dihydroxy-4-(hydroxymethyl)cyclopentyl)amino)-5-(thiazol-2-yl)pyrimidine]
260 | OC[C@H]1C[C@@H](Nc2nc(Nc3ccncc3)ncc2-c2nccs2)[C@H](O)[C@@H]1O [Example 65, 6-(((1R,2S,3R,4R)-2,3-dihydroxy-4-(hydroxymethyl)cyclopentyl)amino)-2-(pyridin-4-ylamino)-5-(thiazol-2-yl)pyrimidine]
4 | CN(C)c1ccc(Nc2ncc(-c3nc4cnccc4s3)c(N[C@@H]3C[C@H](CO)[C@@H](O)[C@H]3O)n2)cc1 [Example 66, (1R,2S,3R,5R)-3-((2-((4-(dimethylamino)phenyl)amino)-5-(thiazolo[4,5-c]pyridin-2-yl)pyrimidin-4-yl)amino)-5-(hydroxymethyl)cyclopentane-1,2-diol]
0.5 | Cc1cc(Nc2ncc(-c3nc4cnccc4s3)c(N[C@@H]3C[C@H](CO)[C@@H](O)[C@H]3O)n2)cc(C)n1 [Example 67, (1R,2S,3R,5R)-3-((2-((2,6-dimethylpyridin-4-yl)amino)-5-(thiazolo[4,5-c]pyridin-2-yl)pyrimidin-4-yl)amino)-5-(hydroxymethyl)cyclopentane-1,2-diol]
0.2 | Cc1cc(Nc2ncc(-c3nc4ccncc4s3)c(N[C@@H]3C[C@H](CO)[C@@H](O)[C@H]3O)n2)cc(C)n1 [Example 68, (1R,2S,3R,5R)-3-((2-((2,6-dimethylpyridin-4-yl)amino)-5-(thiazolo[5,4-c]pyridin-2-yl)pyrimidin-4-yl)amino)-5-(hydroxymethyl)cyclopentane-1,2-diol]
3 | Cc1cc(Nc2ncc(-c3nc4cnccc4s3)c(N[C@@H]3C[C@H](CO)[C@@H](O)[C@H]3O)n2)ccn1 [Example 69, (1S,2R,3R,5R)-3-(hydroxymethyl)-5-((2-((2-methylpyridin-4-yl)amino)-5-(thiazolo[4,5-c]pyridin-2-yl)pyrimidin-4-yl)amino)cyclopentane-1,2-diol]
7 | COc1cc(Nc2ncc(-c3nc4cnccc4s3)c(N[C@@H]3C[C@H](CO)[C@@H](O)[C@H]3O)n2)ccn1 [Example 71, 6-(((1R,2S,3R,4R)-2,3-dihydroxy-4-(hydroxymethyl)cyclopentyl)amino)-2-((2-methoxypyridin-4-yl)amino)-5-(thiazolo[4,5-c]pyridin-2-yl)pyrimidine]
12 | CN(C)c1cccc(Nc2ncc(-c3nc4cnccc4s3)c(N[C@@H]3C[C@H](CO)[C@@H](O)[C@H]3O)n2)c1 [Example 73, 6-(((1R,2S,3R,4R)-2,3-dihydroxy-4-(hydroxymethyl)cyclopentyl)amino)-2-((3-(dimethylamino)phenyl)amino)-5-(thiazolo[4,5-c]pyridin-2-yl)pyrimidine]

Second part, the compound before the results:

Structure (SMILES) | IC50 [nM]
CN(C)c1cccc(Nc2ncc(-c3nc4ccccc4s3)c(N[C@@H]3C[C@H](CO)[C@@H](O)[C@H]3O)n2)c1 [Example 39, (1R,2S,3R,5R)-3-((5-(benzo[d]thiazol-2-yl)-2-((3-(dimethylamino)phenyl)amino)pyrimidin-4-yl)amino)-5-(hydroxymethyl)cyclopentane-1,2-diol] | 8.9
Cc1cc(Nc2ncc(-c3cncs3)c(N[C@@H]3C[C@H](CO)[C@@H](O)[C@H]3O)n2)cc(C)n1 [Example 40, (1R,2S,3R,5R)-3-((2-((2,6-dimethylpyridin-4-yl)amino)-5-(thiazol-5-yl)pyrimidin-4-yl)amino)-5-(hydroxymethyl)cyclopentane-1,2-diol] | 64
Cc1cc(Nc2ncc(-c3cscn3)c(N[C@@H]3C[C@H](CO)[C@@H](O)[C@H]3O)n2)cc(C)n1 [Example 41, (1R,2S,3R,5R)-3-((2-((2,6-dimethylpyridin-4-yl)amino)-5-(thiazol-4-yl)pyrimidin-4-yl)amino)-5-(hydroxymethyl)cyclopentane-1,2-diol] | 7.9
OC[C@H]1C[C@@H](Nc2nc(Nc3ccc(OC(F)(F)F)cc3)ncc2-c2nc3ccccc3s2)[C@H](O)[C@@H]1O [Example 42, (1R,2S,3R,5R)-3-((5-(benzo[d]thiazol-2-yl)-2-((4-(trifluoromethoxy)phenyl)amino)pyrimidin-4-yl)amino)-5-(hydroxymethyl)cyclopentane-1,2-diol] | 552
COc1ccc(Nc2ncc(-c3nc4ccccc4s3)c(N[C@@H]3C[C@H](CO)[C@@H](O)[C@H]3O)n2)cn1 [Example 43, (1R,2S,3R,5R)-3-((5-(benzo[d]thiazol-2-yl)-2-((6-methoxypyridin-3-yl)amino)pyrimidin-4-yl)amino)-5-(hydroxymethyl)cyclopentane-1,2-diol] | 8.2
CN1CCN(c2ccc(Nc3ncc(-c4nc5ccccc5s4)c(N[C@@H]4C[C@H](CO)[C@@H](O)[C@H]4O)n3)cc2)CC1 [Example 44, (1R,2S,3R,5R)-3-((5-(benzo[d]thiazol-2-yl)-2-((4-(4-methylpiperazin-1-yl)phenyl)amino)pyrimidin-4-yl)amino)-5-(hydroxymethyl)cyclopentane-1,2-diol] | 3
CN1CCN(c2cccc(Nc3ncc(-c4nc5ccccc5s4)c(N[C@@H]4C[C@H](CO)[C@@H](O)[C@H]4O)n3)c2)CC1 [Example 45, (1R,2S,3R,5R)-3-((5-(benzo[d]thiazol-2-yl)-2-((3-(4-methylpiperazin-1-yl)phenyl)amino)pyrimidin-4-yl)amino)-5-(hydroxymethyl)cyclopentane-1,2-diol] | 2.6
Nc1ncc(-c2cc3ccccc3s2)c(N[C@@H]2C[C@H](CO)[C@@H](O)[C@H]2O)n1 [Example 46, (1R,2S,3R,5R)-3-((2-amino-5-(benzo[b]thiophen-2-yl)pyrimidin-4-yl)amino)-5-(hydroxymethyl)cyclopentane-1,2-diol] | 1610
OC[C@H]1C[C@@H](Nc2nc(Nc3ccc4[nH]ncc4c3)ncc2-c2nc3ccccc3s2)[C@H](O)[C@@H]1O [Example 50, (1R,2S,3R,5R)-3-((2-((1H-indazol-5-yl)amino)-5-(benzo[d]thiazol-2-yl)pyrimidin-4-yl)amino)-5-(hydroxymethyl)cyclopentane-1,2-diol] | 6.5
OC[C@H]1C[C@@H](Nc2nc(NC3CCNCC3)ncc2-c2nc3ccccc3s2)[C@H](O)[C@@H]1O [Example 52, (1R,2S,3R,5R)-3-((5-(benzo[d]thiazol-2-yl)-2-(piperidin-4-ylamino)pyrimidin-4-yl)amino)-5-(hydroxymethyl)cyclopentane-1,2-diol] | 687
CN1CCC(Nc2ncc(-c3nc4ccccc4s3)c(N[C@@H]3C[C@H](CO)[C@@H](O)[C@H]3O)n2)CC1 [Example 53, (1R,2S,3R,5R)-3-((5-(benzo[d]thiazol-2-yl)-2-((1-methylpiperidin-4-yl)amino)pyrimidin-4-yl)amino)-5-(hydroxymethyl)cyclopentane-1,2-diol] | 2650
OC[C@H]1C[C@@H](Nc2nc(NC3CNC3)ncc2-c2nc3ccccc3s2)[C@H](O)[C@@H]1O [Example 54, (1R,2S,3R,5R)-3-((2-(azetidin-3-ylamino)-5-(benzo[d]thiazol-2-yl)pyrimidin-4-yl)amino)-5-(hydroxymethyl)cyclopentane-1,2-diol] | 736
OC[C@H]1C[C@@H](Nc2nc(NC3CCC3)ncc2-c2ccc3ccccc3n2)[C@H](O)[C@@H]1O [Example 56, 2-(cyclobutylamino)-6-(((1R,2S,3R,4R)-2,3-dihydroxy-4-(hydroxymethyl)cyclopentyl)amino)-5-(quinolin-2-yl)pyrimidine] | 483
OC[C@H]1C[C@@H](Nc2nc(NC3COC3)ncc2-c2ccc3ccccc3n2)[C@H](O)[C@@H]1O [Example 57, 6-(((1R,2S,3R,4R)-2,3-dihydroxy-4-(hydroxymethyl)cyclopentyl)amino)-2-(oxetan-3-ylamino)-5-(quinolin-2-yl)pyrimidine] | 10600
COc1cc(Nc2ncc(-c3ccc4ccccc4n3)c(N[C@@H]3C[C@H](CO)[C@@H](O)[C@H]3O)n2)ccn1 [Example 58, 6-(((1R,2S,3R,4R)-2,3-dihydroxy-4-(hydroxymethyl)cyclopentyl)amino)-2-((2-methoxypyridin-4-yl)amino)-5-(quinolin-2-yl)pyrimidine] | 8
Cc1cc(Nc2ncc(-c3ccc4ccccc4n3)c(N[C@@H]3C[C@H](CO)[C@@H](O)[C@H]3O)n2)cc(C)n1 [Example 59, 6-(((1R,2S,3R,4R)-2,3-dihydroxy-4-(hydroxymethyl)cyclopentyl)amino)-2-((2,6-dimethylpyridin-4-yl)amino)-5-(quinolin-2-yl)pyrimidine] | 1
OC[C@H]1C[C@@H](Nc2nc(NC3CC3)ncc2-c2ccc3ccccc3n2)[C@H](O)[C@@H]1O [Example 60, 2-(cyclopropylamino)-6-(((1R,2S,3R,4R)-2,3-dihydroxy-4-(hydroxymethyl)cyclopentyl)amino)-5-(quinolin-2-yl)pyrimidine] | 1470
CC(C)Oc1cc(Nc2ncc(-c3ccc4ccccc4n3)c(N[C@@H]3C[C@H](CO)[C@@H](O)[C@H]3O)n2)ccn1 [Example 61, 6-(((1R,2S,3R,4R)-2,3-dihydroxy-4-(hydroxymethyl)cyclopentyl)amino)-2-((2-isopropoxypyridin-4-yl)amino)-5-(quinolin-2-yl)pyrimidine] | 27
CC(C)n1ccc(Nc2ncc(-c3ccc4ccccc4n3)c(N[C@@H]3C[C@H](CO)[C@@H](O)[C@H]3O)n2)cc1=O [Example 62, 6-(((1R,2S,3R,4R)-2,3-dihydroxy-4-(hydroxymethyl)cyclopentyl)amino)-2-((1-isopropyl-2-oxo-1,2-dihydropyridin-4-yl)amino)-5-(quinolin-2-yl)pyrimidine] | 154
